One block for each compound: values may come before it.
Columns and labels:
AQP4 = target: T1, AQP4 (Homo sapiens, UniProt P55087); experiment: Oocyte swelling assay: water permeability (Pf) of AQP4-expressing oocytes by videomicroscopy, block or % stimulation; assay type: cell-based; conditions: for AQP-4 effect: comparison with bumetanide (in words): relative to bumetanide; for AQP-4 effect: % activation: 10 μM given extracellularly
T1 construct: expressed in transfected cells; host or cells: Xenopus oocytes
Excerpt: (§1) A method for screening compounds for their ability to modulate aquaporin activity based on a water permeability assay in Xenopus oocytes expressing aquaporins which is used to identify, assess, and characterize compounds that either block or stimulate the aquaporin channels including AQP1, AQP4 and AQP9 channels.
(§2) Selection rationale and methodology. The ability of compounds, analogs and/or agents to block an aquaporin channel was quantified by videomicroscopic analyses of cross-sectional area of AQP-expressing oocytes as a function of time in a defined osmotic gradient, allowing the calculation of the water permeability factor (Pf), statistical evaluation of significant differences in the rate of water entry, and definition of dose response curves with IC50 values (concentration required for half-maximal block).
(§3) This compound evaluation method has been utilized with AQP1,-4,-5, and -9 channels. Observations of channel stimulation were made using the same assay method, however, the results were reported as % stimulation over control at a given concentration. […] TEA is known as a blocker of K^+ channel subtypes and nicotinic acetylcholine receptors. TEA sensitivity of AQP1 was removed by site-directed mutagenesis of tyrosine 186 to phenylalanine (Y186F) in the outer vestibule of the water pore, and confirmed that the inhibitory action of TEA is not due to nonspecific effects on endogenous channels (Brooks et al., 2000).

AQP1 = target: T2, AQP1 (Homo sapiens, UniProt P29972); experiment: Oocyte swelling assay: water permeability (Pf) of AQP1-expressing oocytes, block or % stimulation; assay type: cell-based; parameters: expressed in transfected cells; host or cells: Xenopus oocytes; conditions: arrow symbols, key not given
T2 sequence (P29972 1-269): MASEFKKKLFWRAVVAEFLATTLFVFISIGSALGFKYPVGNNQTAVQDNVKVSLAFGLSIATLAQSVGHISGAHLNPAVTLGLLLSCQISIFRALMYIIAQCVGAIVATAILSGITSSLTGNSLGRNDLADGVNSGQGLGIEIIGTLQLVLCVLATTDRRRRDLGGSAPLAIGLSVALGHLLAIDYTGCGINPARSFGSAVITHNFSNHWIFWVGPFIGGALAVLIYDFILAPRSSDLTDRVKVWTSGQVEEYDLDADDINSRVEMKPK
Excerpt: as §1, §2, §3

[1] = ↓ block, ↑ activation, ═ no effect, symbols not defined in the table

T1 sequence (P55087 whole entry, species assumed): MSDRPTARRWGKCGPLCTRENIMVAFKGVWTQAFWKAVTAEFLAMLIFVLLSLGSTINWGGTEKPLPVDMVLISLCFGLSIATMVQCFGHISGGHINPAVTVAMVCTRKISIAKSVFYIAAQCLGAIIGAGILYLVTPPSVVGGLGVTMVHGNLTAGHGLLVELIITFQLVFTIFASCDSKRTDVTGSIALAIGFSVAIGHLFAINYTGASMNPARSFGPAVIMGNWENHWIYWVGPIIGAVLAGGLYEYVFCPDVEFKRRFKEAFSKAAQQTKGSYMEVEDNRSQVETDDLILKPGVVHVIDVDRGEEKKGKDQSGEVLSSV

- AQP-4 effect: % block (AQP4; at 1 μM extracellularly): −30%
- AQP-4 effect: comparison with bumetanide (in words) (AQP4): Improved potency over bumetanide
Compound: CCCCNc1c(Oc2ccccc2)cc(S(N)(=O)=O)cc1C(=O)OC

- AQP-4 effect: % block (AQP4; at 10 μM extracellularly): −40%
- AQP-4 effect: comparison with bumetanide (in words) (AQP4): Improved potency over bumetanide
Compound: CCCCNc1c(Oc2ccccc2)cc(S(=O)(=O)NC)cc1C(=O)OC

- AQP-4 effect: % block (AQP4; at 100 μM): −40%
- AQP-4 effect: comparison with bumetanide (in words) (AQP4): Improved block
Compound: CCCCNc1c(Oc2ccccc2)cc(S(=O)(=O)NC)cc1C(=O)O

- AQP-4 effect (in words) (AQP4; at 10 μM): No Significant effect at 10 μM
Compound: CCCCNc1cc(C(=O)N2CCN(C)CC2)cc(S(N)(=O)=O)c1Oc1ccccc1

- AQP-4 effect (in words) (AQP4; at 10 μM): Some agonist trend at 10 μM
Compound: CCCCNc1cc(C(=O)NCCN2CCOCC2)cc(S(N)(=O)=O)c1Oc1ccccc1

- AQP-4 effect: % block (AQP4; at 10 μM): 50% block at 10 μM
Compound: CCCCNc1cc(C(=O)NCc2cccnc2)cc(S(N)(=O)=O)c1Oc1ccccc1

- AQP-4 effect (in words) (AQP4; at 10 μM): No Significant effect at 10 μM
Compound: CCCCNc1cc(C(=O)Nc2ccccn2)cc(S(N)(=O)=O)c1Oc1ccccc1

- AQP-4 effect (in words) (AQP4; at 10 μM): No Significant effect at 10 μM
Compound: CCCCNc1cc(C(=O)NCc2ccccn2)cc(S(N)(=O)=O)c1Oc1ccccc1

- AQP-4 effect (in words) (AQP4; at 10 μM): No Significant effect at 10 μM
Compound: CCCCNc1cc(C(=O)NCc2ccncc2)cc(S(N)(=O)=O)c1Oc1ccccc1

- AQP-4 effect (in words) (AQP4; at 10 μM): No Significant effect at 10 μM
Compound: CCCCNc1cc(C(=O)NCCN2CCN(CCN)CC2)cc(S(N)(=O)=O)c1Oc1ccccc1

- AQP-4 effect (in words) (AQP4; at 10 μM): No Significant effect at 10 μM
Compound: CCCCNc1cc(C(=O)NCCCN2CCN(C)CC2)cc(S(N)(=O)=O)c1Oc1ccccc1

- AQP-4 effect (arrow symbol) (AQP4; arrow symbols, key not given): (↑)?
- AQP-1 effect (arrow symbol) (AQP1): ↑
Compound: CNS(=O)(=O)c1cc(C(=O)O)c(NCc2ccco2)cc1Cl

- AQP-4 effect (arrow symbol) (AQP4; arrow symbols, key not given): ↑
- AQP-4 effect (in words) (AQP4; at 100 μM): Significant Agonist Effect
- AQP-1 effect (arrow symbol) (AQP1): ═
Compound: COC(=O)c1cc(S(=O)(=O)NCc2ccccc2)c(Cl)cc1NCc1ccco1

- AQP-4 effect (arrow symbol) (AQP4; arrow symbols, key not given): ═
- AQP-1 effect (arrow symbol) (AQP1): ↓
Compound: O=C(O)c1cc(S(=O)(=O)NCc2ccccc2)c(Cl)cc1NCc1ccco1

- AQP-4 effect (arrow symbol) (AQP4; arrow symbols, key not given): ↑↑
- AQP-4 effect (in words) (AQP4; at 100 μM): Significant Agonist Effect
- AQP-1 effect (arrow symbol) (AQP1): ═
Compound: C=CCNS(=O)(=O)c1cc(C(=O)O)c(NCc2ccco2)cc1Cl

Compound: NS(=O)(=O)c1cc2c(=O)ncn(Cc3ccco3)c2cc1Cl
- AQP-4 effect (in words) (AQP4; at 100 μM): p > 0.05 No significant Antagonist Effect at 100 μM

Compound: NS(=O)(=O)c1cc(C(=O)O)c(Cl)cc1NCc1ccccc1
- AQP-4 effect (in words) (AQP4; at 100 μM): p > 0.05 No significant Antagonist Effect at 100 μM

- AQP-4 effect (in words) (AQP4; at 100 μM): Significant Agonist Effect at 100 μM
Compound: NS(=O)(=O)c1cc(C(=O)O)c(Cl)cc1NCc1ccco1

Compound: CCCCNc1cc(C(=O)OC)cc(S(N)(=O)=O)c1Oc1ccccc1 [AQP-0001, bumetanide methyl ester]
- AQP-4 effect: % block (AQP4; 1 μM extracellularly): −30%
- AQP-4 effect: potency compared with bumetanide (in words) (AQP4; extracellularly): Improved potency over bumetanide
- AQP-4 effect (arrow symbol) (AQP4; [1]): ↓↓

Compound: CCCCNc1cc(C(=O)N2CCOCC2)cc(S(N)(=O)=O)c1Oc1ccccc1 [AQP-0006]
- AQP-4 effect: % activation (AQP4): 70%
- AQP-4 effect (arrow symbol) (AQP4; [1]): ↑

- AQP-4 effect: % activation (AQP4): 110%
- AQP-4 effect (arrow symbol) (AQP4; [1]): ↑↑
Compound: CCCCNc1cc(C(=O)NCCN2CCN(C)CC2)cc(S(N)(=O)=O)c1Oc1ccccc1 [AQP-0007]
